The numbers were not newly measured in patent publication EP0436316A1, “X-ray contrast media for prolonged opacification” (Sovak, Milos, priority 1989, dated 1991), which cites them from elsewhere.

The data set has as its system peritoneal surface. The following applies: barium sulfate spilled into the abdomen after a perforation.

The structures appear in SMILES notation.

Take `O=S(=O)([O-])[O-].[Ba+2]` [barium sulfate]: the “mortality rate of barium peritonitis” value was roughly 50%.
